Results reported in paper PMC10641818, “Development of First-in-Class Dual Sirt2/HDAC6 Inhibitors as Molecular Tools for Dual Inhibition of Tubulin Deacetylation” (Journal of Medicinal Chemistry, 2023).
Values belong to the compound of their own block, whether it stands above or below them.

Experiments:
Sirt2 (demyristoylation) = target: T1, Sirt2 (demyristoylation) (Homo sapiens, UniProt Q8IXJ6); assay: Discontinuous Sirt2 demyristoylation assay (ZMML substrate); type: biochemical; settings: for IC50: mean ± SD
T1 construct: the respective sirtuin (Sirt1_134–747, Sirt2_56–356, or Sirt3_118–395) was mixed with; made in house; host or cells: Escherichia coli BL21 Star (DE3)
T1 sequence (Q8IXJ6 56-356): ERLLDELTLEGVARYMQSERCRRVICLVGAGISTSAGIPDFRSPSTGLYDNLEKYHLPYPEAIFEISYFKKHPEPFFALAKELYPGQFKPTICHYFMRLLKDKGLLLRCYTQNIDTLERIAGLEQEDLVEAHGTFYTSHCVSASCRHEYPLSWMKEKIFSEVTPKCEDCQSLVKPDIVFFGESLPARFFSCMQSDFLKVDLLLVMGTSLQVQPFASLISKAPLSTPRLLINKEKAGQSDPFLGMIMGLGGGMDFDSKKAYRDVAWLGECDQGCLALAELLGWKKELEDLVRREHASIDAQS

Sirt2 [1] = target: T2, Sirt2 (Homo sapiens, UniProt Q8IXJ6); assay: Sirt2 in vitro deacetylation assay (ZMAL, trypsin-based fluorescence); type: biochemical; settings: for IC50: deacetylation, mean ± SD
T2 construct: the respective sirtuin (Sirt1_134–747, Sirt2_56–356, or Sirt3_118–395) was mixed with; made in house; host or cells: Escherichia coli BL21 Star (DE3)
T2 sequence (Q8IXJ6 56-356): T1 sequence (Q8IXJ6 56-356)

Sirt1 = target: T3, Sirt1 (Homo sapiens, UniProt Q96EB6); assay: Sirt1 in vitro deacetylation assay (ZMAL); type: biochemical
T3 construct: the respective sirtuin (Sirt1_134–747, Sirt2_56–356, or Sirt3_118–395) was mixed with; made in house; host or cells: Escherichia coli BL21 Star (DE3)
T3 sequence (Q96EB6 134-747): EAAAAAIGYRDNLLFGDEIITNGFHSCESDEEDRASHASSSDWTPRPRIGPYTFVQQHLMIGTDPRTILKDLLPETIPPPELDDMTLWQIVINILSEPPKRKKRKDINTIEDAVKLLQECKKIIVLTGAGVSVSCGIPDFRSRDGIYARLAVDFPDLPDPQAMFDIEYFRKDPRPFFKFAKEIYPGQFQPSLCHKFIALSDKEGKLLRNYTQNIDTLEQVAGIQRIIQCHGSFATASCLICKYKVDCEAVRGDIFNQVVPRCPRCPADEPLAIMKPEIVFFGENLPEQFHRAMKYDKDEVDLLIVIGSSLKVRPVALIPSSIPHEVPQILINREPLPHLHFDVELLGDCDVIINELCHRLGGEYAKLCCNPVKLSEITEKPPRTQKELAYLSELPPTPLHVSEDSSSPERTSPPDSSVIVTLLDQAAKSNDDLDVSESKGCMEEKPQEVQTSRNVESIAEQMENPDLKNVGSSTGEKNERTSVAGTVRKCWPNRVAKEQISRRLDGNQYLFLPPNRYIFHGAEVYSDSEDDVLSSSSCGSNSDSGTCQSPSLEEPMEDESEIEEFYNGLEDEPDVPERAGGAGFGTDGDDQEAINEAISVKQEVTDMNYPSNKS

Sirt3 = target: T4, Sirt3 (Homo sapiens, UniProt Q9NTG7); assay: Sirt3 in vitro deacetylation assay (ZMAL); type: biochemical
T4 construct: the respective sirtuin (Sirt1_134–747, Sirt2_56–356, or Sirt3_118–395) was mixed with; made in house; host or cells: Escherichia coli BL21 Star (DE3)
T4 sequence (Q9NTG7 118-395): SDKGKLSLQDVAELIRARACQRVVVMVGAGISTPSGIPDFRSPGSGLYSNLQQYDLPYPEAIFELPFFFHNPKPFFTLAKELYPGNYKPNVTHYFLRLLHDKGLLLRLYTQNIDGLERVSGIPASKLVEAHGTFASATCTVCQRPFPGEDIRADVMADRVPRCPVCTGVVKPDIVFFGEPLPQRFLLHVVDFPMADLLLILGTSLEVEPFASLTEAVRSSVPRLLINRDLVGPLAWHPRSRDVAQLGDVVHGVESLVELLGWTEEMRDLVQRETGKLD

HDAC1 = target: T5, HDAC1 (Homo sapiens, UniProt Q13547); assay: HDAC1 in vitro deacetylation assay (ZMAL); type: biochemical; settings: deacetylation, mean ± SD
T5 construct: purchased BPS Bioscience 50051
T5 sequence (Q13547 whole entry): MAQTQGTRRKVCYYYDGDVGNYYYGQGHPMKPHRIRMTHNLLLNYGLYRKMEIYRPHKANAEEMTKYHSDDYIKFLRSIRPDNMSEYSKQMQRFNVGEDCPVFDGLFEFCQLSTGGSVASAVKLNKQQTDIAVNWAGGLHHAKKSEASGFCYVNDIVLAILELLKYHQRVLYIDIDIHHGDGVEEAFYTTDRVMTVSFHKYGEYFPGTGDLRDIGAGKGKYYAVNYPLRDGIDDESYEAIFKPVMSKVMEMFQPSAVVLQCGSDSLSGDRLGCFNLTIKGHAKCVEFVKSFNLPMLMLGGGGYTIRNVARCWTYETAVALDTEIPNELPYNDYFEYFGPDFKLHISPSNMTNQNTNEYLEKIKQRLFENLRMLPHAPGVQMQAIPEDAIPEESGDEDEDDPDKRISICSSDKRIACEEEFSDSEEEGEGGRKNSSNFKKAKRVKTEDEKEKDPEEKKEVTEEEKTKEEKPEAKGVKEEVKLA

[2] = system: HGC27 gastric carcinoma cells; assay: Cell viability assay (MTS) HGC27; type: cell-based; settings: 72 h; for HGC27 cellular effect: @ 50 μM
Protocol: (§1) Cell viability assays of HGC27 and PC-3M-luc cells were performed by using the Celltiter 96 Aqueous Nonradioactive Proliferation Assay (Promega). Cells were seeded in sterile 96-well plates at a density of 2000 cells per well and incubated overnight at 37 °C and 5% CO2. Compound or vehicle were added to a final concentration of 0.5% DMSO. […] Cells were seeded at densities of 10^4 cells/well for W1 cells or 2 × 10^3 cells/well for MCF-7 cells. Tests were performed in 96-well plates (Sarstedt AG, Nümbrecht, Germany). After incubation overnight, cells were supplemented with half logarithmic dilution series of the indicated compounds and DPBS (PAN Biotech GmbH, Aidenbach, Germany) as control. Then 72 h after addition of cytostatic treatment, the MTT solution (20 μL, 5 mg/mL) was added into the wells for 1 h at 37 °C and 5% CO2 until formazan crystals were formed. The supernatant was removed, and the cells were dissolved in 200 μL of DMSO. Absorption was analyzed at 570 nm, with background subtraction at 690 nm, using a plate reader (Thermomultiscan EX, Thermo, Schwerte, Germany). Cell viability was then determined by nonlinear regression and a four-parameter logistic equation with variable hill slope. […] The significance of the difference of the effects of 33 and 4 + 57 was determined by using an unpaired, two-tailed t test with Welch’s correction, implemented in GraphPad Prism 8.4.0 (GraphPad, USA). Statistical significance was accepted if p < 0.05. Asterisks indicate *p < 0.05, **p < 0.01.

W1 ovarian cancer cells = assay: Cell viability assay (MTT) W1; type: cell-based; settings: 72 h; for W1 cellular effect: @ 50 μM
Protocol: as §1

[3] = system: MCF-7 breast cancer cells; assay: Cell viability assay (MTT) MCF-7; type: cell-based; settings: 72 h; for MCF-7 cellular effect: @ 50 μM
Protocol: as §1

[4] = system: PC-3M-luc prostate cancer cells; assay: Cell viability assay (MTS) PC-3M-luc; type: cell-based; settings: 72 h; for PC-3M-luc cellular effect: @ 50 μM
Protocol: as §1

HDAC6 = target: T6, HDAC6 (Homo sapiens, UniProt Q9UBN7); assay: HDAC6 in vitro deacetylation assay (ZMAL); type: biochemical; design: purchased BPS Bioscience 50006; settings: deacetylation, mean ± SD
T6 sequence (Q9UBN7 1-1215): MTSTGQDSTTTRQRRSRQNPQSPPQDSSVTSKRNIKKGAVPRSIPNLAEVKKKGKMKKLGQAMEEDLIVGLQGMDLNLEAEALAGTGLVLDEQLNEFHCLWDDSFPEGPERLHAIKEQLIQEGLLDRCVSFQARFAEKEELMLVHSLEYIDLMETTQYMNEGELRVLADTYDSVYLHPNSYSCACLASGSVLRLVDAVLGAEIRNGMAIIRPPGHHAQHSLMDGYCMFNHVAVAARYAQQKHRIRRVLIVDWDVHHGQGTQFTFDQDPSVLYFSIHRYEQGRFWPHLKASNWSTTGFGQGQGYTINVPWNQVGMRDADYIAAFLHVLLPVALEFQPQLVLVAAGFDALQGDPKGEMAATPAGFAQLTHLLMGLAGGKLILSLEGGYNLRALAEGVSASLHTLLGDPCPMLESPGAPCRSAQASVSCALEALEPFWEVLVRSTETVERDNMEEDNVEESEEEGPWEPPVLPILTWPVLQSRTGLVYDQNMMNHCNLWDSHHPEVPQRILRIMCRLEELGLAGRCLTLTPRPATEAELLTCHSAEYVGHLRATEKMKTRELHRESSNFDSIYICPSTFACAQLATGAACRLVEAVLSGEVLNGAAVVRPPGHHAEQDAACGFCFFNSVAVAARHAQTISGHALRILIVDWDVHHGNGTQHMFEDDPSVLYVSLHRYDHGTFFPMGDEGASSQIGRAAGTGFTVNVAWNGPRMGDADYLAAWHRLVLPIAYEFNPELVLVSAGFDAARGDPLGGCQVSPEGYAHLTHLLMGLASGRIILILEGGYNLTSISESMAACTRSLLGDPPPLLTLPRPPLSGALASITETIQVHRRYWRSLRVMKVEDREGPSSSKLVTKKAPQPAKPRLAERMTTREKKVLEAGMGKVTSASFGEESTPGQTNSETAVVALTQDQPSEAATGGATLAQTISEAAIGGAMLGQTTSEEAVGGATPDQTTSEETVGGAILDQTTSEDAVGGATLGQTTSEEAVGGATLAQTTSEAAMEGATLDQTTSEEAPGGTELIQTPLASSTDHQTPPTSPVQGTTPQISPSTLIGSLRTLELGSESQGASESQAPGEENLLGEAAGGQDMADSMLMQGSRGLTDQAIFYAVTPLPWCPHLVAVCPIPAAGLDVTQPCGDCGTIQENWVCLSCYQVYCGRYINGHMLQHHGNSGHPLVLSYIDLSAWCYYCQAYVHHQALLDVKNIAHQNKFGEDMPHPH

Sirt2 [5] = target: T7, Sirt2 (Homo sapiens, UniProt Q8IXJ6); assay: Cell-based NanoBRET assay for Sirt2 target engagement in HEK293T cells; settings: tracer SirReal-TAMRA 2 μM
T7 construct: expressed in transfected cells; host or cells: HEK293T
T7 sequence (Q8IXJ6 1-389): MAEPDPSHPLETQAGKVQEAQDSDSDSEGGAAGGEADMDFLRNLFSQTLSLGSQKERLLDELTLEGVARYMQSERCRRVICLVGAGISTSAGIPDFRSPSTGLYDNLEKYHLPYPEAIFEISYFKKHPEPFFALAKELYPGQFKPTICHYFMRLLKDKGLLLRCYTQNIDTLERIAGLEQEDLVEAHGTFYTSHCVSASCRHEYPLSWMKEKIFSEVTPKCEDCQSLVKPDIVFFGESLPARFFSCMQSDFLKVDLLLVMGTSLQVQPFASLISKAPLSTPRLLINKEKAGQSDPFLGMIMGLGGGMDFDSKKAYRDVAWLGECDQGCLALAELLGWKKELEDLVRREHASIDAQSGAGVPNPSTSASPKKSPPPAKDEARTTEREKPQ

SMILES: O=C(CCCCCCC(=O)Nc1ccccc1)NO [SAHA, suberoylanilide hydroxamic acid, reference compound]
Sirt2 (demyristoylation) percentual inhibition (Sirt2 (demyristoylation); @ 10 μM): 18% @ 10 μM

SMILES: O=C(NO)c1ccc(CNC(=O)c2ccccc2)cc1 [Compound 56, 4-(Benzamidomethyl)-N-hydroxybenzamide]
IC50 (HDAC1): 810 ± 50 nM
inhibition at 20 µM (Sirt2 (demyristoylation)): < 15%
IC50 (HDAC6): 18 ± 1 nM

SMILES: Cc1cc(C)nc(SCC(=O)Nc2ncc(Cc3cccc(OCc4cn(CCOCCOCCOCCOCCC(=O)Nc5ccc(C(=O)NCc6ccc(C(=O)NO)cc6)cc5)nn4)c3)s2)n1 [Compound 44, 4-((4-(1-(4-((3-((2-(2-((4,6-Dimethylpyrimidin-2-yl)thio)acetamido)thiazol-5-yl)methyl)phenoxy)methyl)-1H-1,2,3-triazol-1-yl)-3,6,9,12-tetraoxapentadecan-15-amido)benzamido)methyl)-N-hydroxybenzamide]
IC50 (Sirt2 [1]): 480 ± 40 nM
inhibition at 20 µM (Sirt1): < 15%
inhibition at 20 µM (Sirt3): < 15%
IC50 (HDAC1): 600 ± 30 nM
IC50 (Sirt2 (demyristoylation)): 34000 ± 2000 nM
HGC27 cellular effect [2]: ni ^b (ni = no inhibition (cellular effect <20% @ 50 μM))
W1 cellular effect (W1 ovarian cancer cells): ni ^b (ni = no inhibition (cellular effect <20% @ 50 μM))
MCF-7 cellular effect [3]: ni ^b (ni = no inhibition (cellular effect <20% @ 50 μM))
PC-3M-luc cellular effect [4]: ni ^b (ni = no inhibition (cellular effect <20% @ 50 μM))
IC50 (HDAC6): 9.6 ± 0.3 nM

SMILES: Cc1cc(C)nc(SCC(=O)Nc2ncc(Cc3cccc(C(=O)NO)c3)s2)n1 [Compound 21, 3-((2-(2-((4,6-Dimethylpyrimidin-2-yl)thio)acetamido)thiazol-5-yl)methyl)-N-hydroxybenzamide]
inhibition at 20 µM (Sirt2 (demyristoylation)): < 15%

Continued, in another order:

IC50 (Sirt2 [1]): 540 ± 10 nM
inhibition at 20 µM (Sirt1): < 15%
inhibition at 20 µM (Sirt3): < 15%
IC50 (HDAC1): 460 ± 50 nM
IC50 (Sirt2 (demyristoylation)): 2800 ± 600 nM
IC50 (HDAC6): 17 ± 1 nM
SMILES: Cc1cc(C)nc(SCC(=O)Nc2ncc(Cc3cccc(OCc4cn(CCOCCOCCOCCOCCOCCOCCOCCOCCOCCOCCC(=O)Nc5ccc(C(=O)NCc6ccc(C(=O)NO)cc6)cc5)nn4)c3)s2)n1 [Compound 45, 4-((4-(1-(4-((3-((2-(2-((4,6-Dimethylpyrimidin-2-yl)thio)acetamido)thiazol-5-yl)methyl)phenoxy)methyl)-1H-1,2,3-triazol-1-yl)-3,6,9,12,15,18,21,24,27,30-decaoxatritriacontan-33-amido)benzamido)methyl)-N-hydroxybenzamide]
HGC27 cellular effect [2]: ni ^b (ni = no inhibition (cellular effect <20% @ 50 μM))
W1 cellular effect (W1 ovarian cancer cells): ni ^b (ni = no inhibition (cellular effect <20% @ 50 μM))
MCF-7 cellular effect [3]: ni ^b (ni = no inhibition (cellular effect <20% @ 50 μM))
PC-3M-luc cellular effect [4]: ni ^b (ni = no inhibition (cellular effect <20% @ 50 μM))

IC50 (HDAC1): 17000 ± 1000 nM
inhibition at 20 µM (Sirt2 (demyristoylation)): < 15%
IC50 (HDAC6): 650 ± 40 nM
SMILES: CC(=O)NCc1ccc(C(=O)NO)cc1 [Compound 55, 4-(Acetamidomethyl)-N-hydroxybenzamide]

inhibition at 20 µM (Sirt2 [1]; @ 20 μM): < 15%
Sirt2 inhibition (Sirt2 [1]; supplementary CSV, column IC50 Sirt2 [µM]): n.i.
inhibition at 5 µM (Sirt2 (demyristoylation); @ 5 μM, read-out: Sirt2 (demyristoylation) percentual inhibition): < 15%
Cellular Sirt2 binding (NanoBRET) (Sirt2 [5]): no Sirt2 binding
EC50 ([2]; Homo sapiens, HGC-27, MTS, mean ± SD): 21100 ± 1600 nM
EC50 (W1 ovarian cancer cells; MTT, mean ± SD): 33600 ± 4100 nM
EC50 ([3]; Homo sapiens, MCF7, MTT, mean ± SD): 16300 ± 5900 nM
EC50 ([4]; PC-3M-luc, read-out: PC-3M-luc cell viability EC50, MTS, mean ± SD): 30100 ± 2300 nM
SMILES: CCCCC(=O)N(CCCC)Cc1ccc(C(=O)NO)cc1 [Compound 57, 4-((N-Butylpentanamido)methyl)-N-hydroxybenzamide]
